Legend:
Skeletonema costatum = experiment: Toxicity against Skeletonema costatum; type: cell-based; settings: over 72 hours
Experimental: The toxicity of a quaternary ammonium compound or an LDHI composition comprising the quaternary ammonium compound may be evaluated by testing against Skeletonema costatum and determining EC50 values in the aquatic environment. Also the percentage biodegradation may be measured after 28 days in seawater.
Toxicity was tested against Skeletonema costatum and EC50 values determined (over 72 hours).

[1] = Biodegradation in seawater, OECD TG 306 28 day method; settings: OECD TG 306, 28 days
Experimental: Environmental experiments were performed to test biodegradation and toxicity. The biodegradation tests used the standard OECD Guideline for Testing of Chemicals TG 306 (Biodegradability in Seawater) 28 day method (version adopted 17 Jul. 1992) for testing biodegradation of chemicals in seawater.

CCCCCCCCCCCCCC[P+](CCCC)(CCCC)CCCC.[Cl-] [TTPC, tributyl tetradecylphosphonium chloride]
EC50 (Skeletonema costatum): 0.016 µg/mL | Biodegradation after 28 days [1]: 11%

Reference: US10550304B2, “Quaternary ammonium compounds and gas hydrate inhibitor compositions” (M-I DRILLING FLUIDS UK LIMITED, priority 2013, dated 2020)
